Source: US20190249218A1, “Method, Medium and Kit for Detecting Multiple Aminoglycoside Resistance Including 16S rRNA Methylase Mediated Resistance in Gram-Negative Bacteria” (priority 2016, published 2019)
Converted amounts (≈) assume the structure as drawn. Like-named read-outs stand apart in the source and are kept apart here.

Tests used:
Test in all cases: MIC by broth microdilution
[1] = test system: E. coli; format: cell-based, Escherichia coli
Experimental: (§1) MICs of amikacin and gentamicin were determined using the broth microdilution method in cation-adjusted Mueller-Hinton broth, as recommended by the Clinical Laboratory Standard Institute (CLSI) guidelines (8). Amikacin and gentamicin sulfate (Fluorochem, Dertbyshire, UK) were tested over a range of dilutions from 0.25 to 256 μg/ml. A final inoculum of 5.10^5 CFU/ml of each strain was distributed in the 96 wells tray (Sarstedt, Ntimbrecht, Germany). All experiments were repeated in triplicate and E. coli ATCC 25922 was used as quality control. According to the CLSI breakpoints (9), Enterobacteriaceae isolates with gentamicin MICs≤4 and amikacin MICs≤16 mg/L were categorized as susceptible, while those with gentamicin MICs≥16 and amikacin MICs≥64 mg/L were categorized as resistant.
(§2) MICs of amikacin and gentamicin were determined as described above in Example 1.

[2] = test system: S. marcescens; format: cell-based, Serratia marcescens; conditions: AAC(3)-I
Experimental: as §1, §2

[3] = test system: K. pneumoniae; format: cell-based, Klebsiella pneumoniae; conditions: for MIC: Klebsiella pneumoniae, read-out: MIC
Experimental: as §1, §2

[4] = test system: P. mirabilis; format: cell-based, Proteus mirabilis; conditions: for MIC: Proteus mirabilis, read-out: MIC
Experimental: as §1, §2

[5] = test system: E. cloacae; format: cell-based, Enterobacter cloacae; conditions: for MIC: Enterobacter cloacae, read-out: MIC
Experimental: as §1, §2

[6] = test system: P. aeruginosa; format: cell-based, Pseudomonas aeruginosa; conditions: Pseudomonas aeruginosa, read-out: MIC
Experimental: as §1, §2

[7] = test system: P. rettgeri; format: cell-based, Providencia rettgeri; conditions: AAC(2′)
Experimental: as §1, §2

[8] = isolate 13000, K. pneumoniae, APH(3′)-I + AAC(3)-V
[9] = isolate 22233, K. pneumoniae, AAC(3)-V
[10] = isolate N34, K. pneumoniae, rmtC
[11] = isolate R108, K. pneumoniae, armA
[12] = isolate R347, K. pneumoniae, AG susceptible
[13] = isolate R500, K. pneumoniae, armA
[14] = isolate R502, K. pneumoniae, rmtF
[15] = isolate R2160, K. pneumoniae, rmtG
[16] = isolate R2257, K. pneumoniae, armA
[17] = isolate S155, K. pneumoniae, AG susceptible
[18] = isolate R2260, P. mirabilis, AG susceptible
[19] = isolate 1110, E. cloacae, ANT(2″)
[20] = isolate HM, E. cloacae, AG susceptible
[21] = isolate R713, E. cloacae, AG susceptible
[22] = isolate R1433, E. cloacae, AG susceptible
[23] = isolate R2258, E. cloacae, armA

With `NCC[C@H](O)C(=O)N[C@@H]1C[C@H](N)[C@@H](O[C@H]2O[C@H](CN)[C@@H](O)[C@H](O)[C@H]2O)[C@H](O)[C@H]1O[C@H]1O[C@H](CO)[C@@H](O)[C@H](N)[C@H]1O` [Amikacin] the “Amikacin Phenotype” value ([1]; isolate R4100, E. coli TOP10, npmA) was “R (amikacin MICs≥64 mg/L were categorized as resistant)”, the “Amikacin Phenotype” value ([1]; isolate RP4, E. coli, APH(3′)-Ib) was “S (amikacin MICs≤16 mg/L were categorized as susceptible)” and the “Amikacin Phenotype” value ([1]; isolate pFCT1163, E. coli, AAC(6′)-Ia) was “R (amikacin MICs≥64 mg/L were categorized as resistant)”. The “Amikacin Phenotype” value ([1]; isolate pFCT4392, E. coli, AAC(3)-Ia) was “S (amikacin MICs≤16 mg/L were categorized as susceptible)”, the “Amikacin Phenotype” value ([1]; isolate pWP701, E. coli, AAC(3)-IV) was “S (amikacin MICs≤16 mg/L were categorized as susceptible)” and the MIC ([2]; Serratia marcescens, isolate 4290, S. marcescens, read-out: MIC) was 4 µg/mL (≈ 6.83 µM). The “Amikacin Phenotype” value ([2]; isolate 4290, S. marcescens) was “S (amikacin MICs≤16 mg/L were categorized as susceptible)”, the MIC ([2]; strain 4290, S. marcescens) was 4 µg/mL (≈ 6.83 µM) and the MIC ([3]; isolate 1800, K. pneumoniae, AAC(6′)-I + AAC(3)-I) was 32 µg/mL. For the same compound, the MIC [3, 8] was 0.5 µg/mL, the MIC [3, 9] was 16 µg/mL (≈ 27.3 µM) and the MIC [3, 10] was greater than 256 µg/mL. The MIC [3, 11] was greater than 256 µg/mL, the MIC [3, 12] was 4 µg/mL (≈ 6.83 µM) and the MIC [3, 13] was greater than 256 µg/mL. For the same compound, the MIC [3, 14] was greater than 256 µg/mL, the MIC [3, 15] was greater than 256 µg/mL and the MIC [3, 16] was greater than 256 µg/mL. The MIC [3, 17] was 2 µg/mL (≈ 3.42 µM), the MIC ([3]; strain 1800, K. pneumoniae, AAC(6′)-I + AAC(3)-I) was 32 µg/mL and the MIC ([3]; strain 13000, K. pneumoniae, APH(3′)-I + AAC(3)-V) was 0.5 µg/mL. The MIC ([3]; strain 22233, K. pneumoniae, AAC(3)-V) was 16 µg/mL (≈ 27.3 µM), the MIC ([3]; strain N34, K. pneumoniae, rmtC) was greater than 512 µg/mL and the MIC ([3]; strain R108, K. pneumoniae, armA) was greater than 512 µg/mL. For the same compound, the MIC ([3]; strain R347, K. pneumoniae, susceptible) was 4 µg/mL (≈ 6.83 µM), the MIC ([3]; strain R500, K. pneumoniae, armA) was greater than 512 µg/mL and the MIC ([3]; strain R502, K. pneumoniae, rmtF) was greater than 512 µg/mL. It also gave an MIC ([3]; strain R2160, K. pneumoniae, rmtG) greater than 512 µg/mL, an MIC ([3]; strain R2257, K. pneumoniae, armA) greater than 512 µg/mL and an MIC ([3]; strain S155, K. pneumoniae, susceptible) of 2 µg/mL (≈ 3.42 µM). The “Amikacin Phenotype” value [3, 8] was “S (amikacin MICs≤16 mg/L were categorized as susceptible)”, the “Amikacin Phenotype” value [3, 9] was “S (amikacin MICs≤16 mg/L were categorized as susceptible)” and the “Amikacin Phenotype” value [3, 10] was “R (amikacin MICs≥64 mg/L were categorized as resistant)”. The “Amikacin Phenotype” value [3, 11] was “R (amikacin MICs≥64 mg/L were categorized as resistant)”, the “Amikacin Phenotype” value [3, 12] was “S (amikacin MICs≤16 mg/L were categorized as susceptible)” and the “Amikacin Phenotype” value [3, 13] was “R (amikacin MICs≥64 mg/L were categorized as resistant)”. For the same compound, the “Amikacin Phenotype” value [3, 14] was “R (amikacin MICs≥64 mg/L were categorized as resistant)”, the “Amikacin Phenotype” value [3, 15] was “R (amikacin MICs≥64 mg/L were categorized as resistant)” and the “Amikacin Phenotype” value [3, 16] was “R (amikacin MICs≥64 mg/L were categorized as resistant)”. The “Amikacin Phenotype” value [3, 17] was “S (amikacin MICs≤16 mg/L were categorized as susceptible)”, the MIC [4, 18] was 4 µg/mL (≈ 6.83 µM) and the MIC ([4]; strain R263, P. mirabilis, armA) was greater than 512 µg/mL. For the same compound, the MIC ([4]; strain R2260, P. mirabilis, susceptible) was 4 µg/mL (≈ 6.83 µM), the “Amikacin Phenotype” value [4, 18] was “S (amikacin MICs≤16 mg/L were categorized as susceptible)” and the MIC [5, 19] was 1 µg/mL (≈ 1.71 µM). For the same compound, the MIC [5, 20] was 4 µg/mL (≈ 6.83 µM), the MIC [5, 21] was 4 µg/mL (≈ 6.83 µM) and the MIC [5, 22] was 4 µg/mL (≈ 6.83 µM). It also gave an MIC [5, 23] greater than 256 µg/mL, an MIC ([5]; strain 1110, E. cloacae, ANT(2″)) of 1 µg/mL (≈ 1.71 µM) and an MIC ([5]; strain HM, E. cloacae, susceptible) of 4 µg/mL (≈ 6.83 µM). It also gave an MIC ([5]; strain R713, E. cloacae, susceptible) of 4 µg/mL (≈ 6.83 µM), an MIC ([5]; strain R1433, E. cloacae, susceptible) of 4 µg/mL (≈ 6.83 µM) and an MIC ([5]; strain R2258, E. cloacae, armA) greater than 512 µg/mL. The “Amikacin Phenotype” value [5, 19] was “S (amikacin MICs≤16 mg/L were categorized as susceptible)”, the “Amikacin Phenotype” value [5, 20] was “S (amikacin MICs≤16 mg/L were categorized as susceptible)” and the “Amikacin Phenotype” value [5, 21] was “S (amikacin MICs≤16 mg/L were categorized as susceptible)”. For the same compound, the “Amikacin Phenotype” value [5, 22] was “S (amikacin MICs≤16 mg/L were categorized as susceptible)”, the “Amikacin Phenotype” value [5, 23] was “R (amikacin MICs≥64 mg/L were categorized as resistant)” and the MIC ([6]; strain 3655, P. aeruginosa, APH(3′)-I + ANT(2″)) was 1 µg/mL. For the same compound, the MIC ([6]; strain 3658, P. aeruginosa, APH(3′)-I + ANT(4′)-II) was greater than 128 µg/mL, the MIC ([6]; strain 28233, P. aeruginosa, APH(3′)-I + AAC(3)-I) was 4 µg/mL and the MIC ([6]; strain R191, P. aeruginosa, susceptible) was 8 µg/mL (≈ 13.7 µM). For the same compound, the MIC ([7]; Providencia rettgeri, isolate 531, P. rettgeri, read-out: MIC) was 16 µg/mL (≈ 27.3 µM), the “Amikacin Phenotype” value ([7]; isolate 531, P. rettgeri) was “S (amikacin MICs≤16 mg/L were categorized as susceptible)” and the MIC ([7]; strain 531, P. rettgeri) was 16 µg/mL (≈ 27.3 µM).
